Usually pIC50 stands for −log10 of the IC50, conventionally taken in molar units. The inhibition is how much of the control response was suppressed. A low value points to little suppression.

The target in experiment [1] is MDM2 (Homo sapiens, UniProt Q00987). Nature of the experiment: MALDI-TOF E2/E3 ligase assay (mono-ubiquitin consumption), UBE1/UBE2D1/MDM2. In kind it is biochemical. As to conditions: for remaining activity at 10 µM: read-out: Residual Activity (%), UBE1/UBE2D1/MDM2; for Inhibition effect on MDM2 with β-mercaptoethanol (BME) present: initial presence of BME in the MDM2 preparation.
MDM2, sequence (Q00987 whole entry): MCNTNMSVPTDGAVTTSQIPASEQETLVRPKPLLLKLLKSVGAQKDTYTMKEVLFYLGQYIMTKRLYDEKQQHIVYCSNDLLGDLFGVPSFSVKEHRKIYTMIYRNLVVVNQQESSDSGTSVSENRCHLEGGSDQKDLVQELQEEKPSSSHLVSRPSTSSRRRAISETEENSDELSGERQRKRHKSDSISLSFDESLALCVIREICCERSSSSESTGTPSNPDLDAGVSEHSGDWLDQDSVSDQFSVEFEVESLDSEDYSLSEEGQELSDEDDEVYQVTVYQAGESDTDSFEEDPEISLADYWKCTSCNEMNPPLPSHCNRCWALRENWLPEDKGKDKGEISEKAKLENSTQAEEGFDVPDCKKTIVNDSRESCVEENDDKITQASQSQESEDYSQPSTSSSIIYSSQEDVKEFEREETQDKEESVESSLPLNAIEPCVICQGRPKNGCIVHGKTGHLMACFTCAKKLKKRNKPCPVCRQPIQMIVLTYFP

The target in experiment [2] is T1, ITCH (Homo sapiens, UniProt Q96J02).
T1 construct: ITCH Q96J02 - GST full length; host or cells: E. coli BL21
T1 sequence (Q96J02 whole entry): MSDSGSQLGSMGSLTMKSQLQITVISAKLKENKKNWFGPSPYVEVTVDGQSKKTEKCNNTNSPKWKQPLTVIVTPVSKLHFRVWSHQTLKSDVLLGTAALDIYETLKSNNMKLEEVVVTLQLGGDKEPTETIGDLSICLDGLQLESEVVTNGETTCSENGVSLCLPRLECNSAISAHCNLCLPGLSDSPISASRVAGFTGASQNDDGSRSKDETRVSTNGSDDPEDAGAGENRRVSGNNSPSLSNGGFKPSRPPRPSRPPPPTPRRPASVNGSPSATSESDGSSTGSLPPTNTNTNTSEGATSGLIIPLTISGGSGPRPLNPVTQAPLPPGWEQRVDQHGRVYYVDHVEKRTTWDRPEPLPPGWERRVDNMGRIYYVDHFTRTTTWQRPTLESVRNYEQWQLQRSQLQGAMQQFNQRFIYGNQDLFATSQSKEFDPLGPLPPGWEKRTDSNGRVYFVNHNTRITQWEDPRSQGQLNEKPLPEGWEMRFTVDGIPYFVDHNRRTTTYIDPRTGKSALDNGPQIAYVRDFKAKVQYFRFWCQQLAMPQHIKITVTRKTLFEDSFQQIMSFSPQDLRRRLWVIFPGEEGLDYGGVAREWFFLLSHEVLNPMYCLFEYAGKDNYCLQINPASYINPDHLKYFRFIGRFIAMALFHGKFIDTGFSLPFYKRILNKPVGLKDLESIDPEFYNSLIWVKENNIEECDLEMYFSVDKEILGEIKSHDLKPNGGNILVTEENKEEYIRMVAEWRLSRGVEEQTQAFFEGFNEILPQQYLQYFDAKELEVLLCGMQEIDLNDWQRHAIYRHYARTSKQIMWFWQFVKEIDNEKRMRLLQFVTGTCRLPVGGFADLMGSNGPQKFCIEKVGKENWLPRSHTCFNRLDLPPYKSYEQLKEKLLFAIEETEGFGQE
Kind of experiment: MALDI-TOF E2/E3 ligase assay (mono-ubiquitin consumption), UBE1/UBE2D1/ITCH. Conditions: for remaining activity at 10 µM: read-out: Residual Activity (%), UBE1/UBE2D1/ITCH. The class given is biochemical.

Experiment [3] concerns the target T2, HOIP (Homo sapiens, UniProt Q96EP0).
T2 construct: HOIP (697-1072) DU22629; GST (cleaved yes); host or cells: E. coli BL21
T2 sequence (Q96EP0 697-1072): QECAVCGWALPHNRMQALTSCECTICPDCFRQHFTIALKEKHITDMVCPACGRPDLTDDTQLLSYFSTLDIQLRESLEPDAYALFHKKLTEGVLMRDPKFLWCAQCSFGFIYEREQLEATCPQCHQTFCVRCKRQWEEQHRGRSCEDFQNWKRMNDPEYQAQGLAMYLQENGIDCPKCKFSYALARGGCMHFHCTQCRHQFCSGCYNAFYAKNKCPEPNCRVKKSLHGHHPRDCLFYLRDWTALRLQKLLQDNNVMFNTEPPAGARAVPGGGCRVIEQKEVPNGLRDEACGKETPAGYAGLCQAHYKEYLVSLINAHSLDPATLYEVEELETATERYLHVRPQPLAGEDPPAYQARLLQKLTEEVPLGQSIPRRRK
Nature of the experiment: MALDI-TOF E2/E3 ligase assay (mono-ubiquitin consumption), UBE1/UBE2L3/HOIP. The class given is biochemical. Conditions: for remaining activity at 10 µM: read-out: Residual Activity (%), UBE1/UBE2L3/HOIP.

Experiment [4] concerns the target T3, UBE2L3 (Homo sapiens, UniProt P68036).
T3 construct: UBE2L3 P68036 UbcH7 - full length; 6His (cleaved yes); host or cells: E. coli BL21 DE3 codon plus
Kind of experiment: MALDI-TOF MS of intact E2 protein incubated with inhibitor (covalent modification). As to conditions: UBE2L3 3 µM, inhibitor 100 µM, 30 min, room temperature. In kind it is binding.

For experiment [5], the system named is ITCH. Further details: method as in Rossi et al., 2014. As to conditions: irreversible block; ref Rossi et al., 2014; cited from earlier work.
In experiment [6] the target is T2, HOIP. The class given is biochemical.
[7] abbreviates: HTS single point, 10 μM compound.
[8] abbreviates: UBE1/UBE2D1/MDM2, compounds pre-incubated 30 min, then ubiquitin 30 or 40 min, four-parameter fit, read-out: IC50 against MDM2.
Setting [9] is: UBE1/UBE2L3/HOIP, compounds pre-incubated 30 min, then ubiquitin 30 or 40 min, four-parameter fit, read-out: IC50 against HOIP.
Setting [10] is: UBE1/UBE2D1/ITCH, compounds pre-incubated 30 min, then ubiquitin 30 or 40 min, four-parameter fit, read-out: IC50 against ITCH.

Molecules are shown by their SMILES. pIC50: −log10 of the molar value. Values joined by “and” are separate entries in the source; they are usually repeats but may differ in a detail not shown here. Equal values may be shown once. “Also recorded” adds a separate entry of the source. Read-outs that look alike come from different tables or passages of the source.

T3 sequence (P68036 whole entry): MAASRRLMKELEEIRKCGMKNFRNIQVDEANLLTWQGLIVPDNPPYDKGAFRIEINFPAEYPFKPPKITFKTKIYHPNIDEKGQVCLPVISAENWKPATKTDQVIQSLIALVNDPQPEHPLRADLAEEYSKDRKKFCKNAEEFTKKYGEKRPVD

As to `Oc1c(Cl)cc(Cl)c(Cl)c1Cc1c(O)c(Cl)cc(Cl)c1Cl` [hexachlorophene], the values for the remaining activity at 10 µM in experiment [1] and in experiment [2] were 52.4% and 22.2%, respectively.

Take `C=C(CC)C(=O)c1ccc(OCC(=O)O)c(Cl)c1Cl` [ethacrynic acid]: the remaining activity at 10 µM in experiment [1] (setting [7]) is 53.9%; in experiment [2] (setting [7]), 29.5%.

As to `C[C@H]1[C@H](NC(=O)/C(=N\OC(C)(C)C(=O)O)c2csc(N)n2)C(=O)N1S(=O)(=O)O` [aztreonam], the remaining activity at 10 µM in experiment [1] (setting [7]) came to 56.7%.

`N[C@@H](C(=O)N[C@@H]1C(=O)N2C(C(=O)O)=C(CSc3c[nH]nn3)CS[C@H]12)c1ccc(O)cc1` [cefatrizine]: the remaining activity at 10 µM in experiment [3] (setting [7]) is 49%.

Consider `CCCCN1CCCCC1C(=O)Nc1c(C)cccc1C` (centres unmarked) [bupivacaine], for which the remaining activity at 10 µM in experiment [3] (setting [7]) was 66.2%.

For the molecule `Cc1ccc(S(=O)(=O)/C=C/C#N)cc1` [BAY117082], the “Hill Slope Values for calculated IC50s, MDM2” value in experiment [1] (Table S4) was 3.5. Moreover, the figures for the negative-log IC50 (pIC50) in experiment [1] (setting [8]), in experiment [3] (setting [9]) and in experiment [2] (setting [10]) were 5.62, 5.54 and 4.59, respectively. The “Inhibition effect on MDM2 with β-mercaptoethanol (BME) present” value in experiment [1] is given as “suppressed”. Besides, in experiment [3] (Table S4), the “Hill Slope Values for calculated IC50s, HOIP” value is reported as 2.48. Further, the “Hill Slope Values for calculated IC50s, ITCH” value in experiment [2] (Table S4) is reported as 1.23. Besides, in experiment [4], the “Covalent modification of E2 enzyme UBE2L3 (in words)” value is on record as “covalently modified E2 enzymes”. Also, the “Mass shift of UBE2L3 after incubation with inhibitor” value in experiment [4] worked out at 153 Da.

As for `O=c1c2ccccc2[se]n1-c1ccccc1` [ebselen], the remaining activity at 10 µM in experiment [3] (setting [7]) is 36.2%.

Consider `COc1ccc(CCN)cc1OC` [2-(3,4-dimethoxyphenyl) ethanamine], for which the remaining activity at 10 µM in experiment [3] turned out to be 68.2%.

With `N#CSc1cc(SC#N)c(N)nc1N` [PR619], the “Hill Slope Values for calculated IC50s, MDM2” value in experiment [1] (Table S4) is reported as 1.89. The results for the pIC50 in experiment [1] (setting [8]), in experiment [3] (setting [9]) and in experiment [2] (setting [10]) were 6.22, 6.70 and 6.40, respectively. Besides, in experiment [3] (Table S4), the “Hill Slope Values for calculated IC50s, HOIP” value is listed as 7.8. In addition, the “Hill Slope Values for calculated IC50s, ITCH” value in experiment [2] (Table S4) is recorded as 3.14. Moreover, the “Covalent modification of E2 enzyme UBE2L3 (in words)” value in experiment [4] is “extensively modified UBE2L3; also recorded: covalently modified E2 enzymes”.

As for `OC(Cn1cncn1)(Cn1cncn1)c1ccc(F)cc1F` [fluconazole], the remaining activity at 10 µM in experiment [3] (setting [7]) is 46.4%.

For `COc1ccc(C2=N[C@@H](c3ccc(Cl)cc3)[C@@H](c3ccc(Cl)cc3)N2C(=O)N2CCNC(=O)C2)c(OC(C)C)c1` [Nutlin3A, nutlin-3A], the “Inhibitory activity toward HOIP in IC50 curves (in words)” value in experiment [3] (0–100 μM) is recorded as “did not show any inhibitory activity”. Further, the “IC50 against HOIP” value in experiment [3] (UBE1/UBE2L3/HOIP, compounds pre-incubated 30 min, then ubiquitin 30 or 40 min, four-parameter fit) is listed as “ambiguous”. Also, in experiment [2] (0–100 μM), the “Inhibitory activity toward ITCH in IC50 curves (in words)” value is “did not show any inhibitory activity”. In addition, the “IC50 against ITCH” value in experiment [2] (UBE1/UBE2D1/ITCH, compounds pre-incubated 30 min, then ubiquitin 30 or 40 min, four-parameter fit) was “ambiguous”.

In the case of `O=C(NCCN1CCOCC1)c1ccc(Cl)cc1` [moclobemide], the remaining activity at 10 µM in experiment [3] (setting [7]) was determined as 25.9%.

`CN(C)CCCN1c2ccccc2CCc2ccc(Cl)cc21` [Clomipramine]: in experiment [1], the “Inhibition of MDM2 at 10 μM (in words)” value is “did not inhibit”. For the same molecule, the “Concentration achieving complete inhibition of ITCH ubiquitin transthiolation” value in experiment [5] was 0.8 mM. The “Inhibition of HOIP at 10 μM (in words)” value in experiment [3] (10 μM) is given as “did not inhibit”. Besides, the “Inhibition of ITCH at 10 μM (in words)” value in experiment [2] is “did not inhibit”. Besides, the pIC50 in experiment [2] (dose-response curve, final concentrations between 2mM and 7 µM, read-out: IC50 against ITCH) is 3.30 and ~3.30.

As for `Cn1c(CCCC(=O)O)nc2cc(N(CCCl)CCCl)ccc21` [bendamustine], in experiment [1], the negative-log IC50 (pIC50) is 3.94 and the “Inhibition of MDM2 at 10 μM (in words)” value is given as “did not significantly affect”. In addition, the pIC50 in experiment [3] (IC50 against HOIP, UBE1/UBE2L3/HOIP, compounds pre-incubated 30 min, then ubiquitin 30 or 40 min, four-parameter fit) was 5.19 and 5.20. Also, in experiment [3] (from IC50 values), the “Fold higher activity against HOIP than against ITCH” value stood at 12 fold and the “Fold higher activity against HOIP than against MDM2” value is recorded as 18 fold. Further, the remaining activity at 10 µM in experiment [3] is 6.3%. Besides, in experiment [2], the pIC50 is 4.11 and the “Inhibition of ITCH at 10 μM (in words)” value is “did not significantly affect”. In addition, the “Inhibition of HOIP when paired with UBE2D1 (in words)” value in experiment [6] is on record as “inhibits HOIP independently from the E2 in use; also recorded: retained its inhibition power”.

Take `Cc1ccnc2c1NC(=O)c1cccnc1N2C1CC1` [nevirapine]: the remaining activity at 10 µM in experiment [3] (setting [7]) was 54.8%.

For `Cc1[nH]cnc1CN1CCc2c(c3ccccc3n2C)C1=O` [alosetron], the remaining activity at 10 µM in experiment [2] (setting [7]) is 58.2%.

For the molecule `Oc1ccc(/C=C/c2cc(O)cc(O)c2)cc1` [resveratrol], the remaining activity at 10 µM in experiment [3] (setting [7]) was determined as 62.2%.

On to `CCOc1nc2cccc(C(=O)OC(C)OC(=O)OC3CCCCC3)c2n1Cc1ccc(-c2ccccc2-c2nnn[nH]2)cc1` (centres unmarked) [candesartan cilexetil], for which, in experiment [1] (setting [7]), the inhibition at 10 µM was over 50% and the remaining activity at 10 µM was 48.6%. Further, the negative-log IC50 (pIC50) in experiment [1] (setting [8]) was 5.06.

Take `CCOC(=O)c1ccc(N2NC(=O)/C(=C/c3ccc([N+](=O)[O-])o3)C2=O)cc1` [PYR41]: in experiment [1] (Table S4), the “Hill Slope Values for calculated IC50s, MDM2” value is 2.23. Moreover, the pIC50 was 5.51 in experiment [1] (setting [8]), 5.24 in experiment [3] (setting [9]) and 4.95 in experiment [2] (setting [10]). Moreover, in experiment [1], the “Inhibition effect on MDM2 with β-mercaptoethanol (BME) present” value is given as “suppressed”. The “Hill Slope Values for calculated IC50s, HOIP” value in experiment [3] (Table S4) is 3.73. In experiment [2] (Table S4), the “Hill Slope Values for calculated IC50s, ITCH” value was 1.22.

Regarding `CN1C(=O)[C@]23CC4=CC=C[C@H](O)[C@H]4N2C(=O)[C@@]1(CO)SS3` [Gliotoxin], in experiment [1], the “Hill Slope Values for calculated IC50s, MDM2” value is 2.18 and the pIC50 was 6.30. Moreover, in experiment [3], the “Hill Slope Values for calculated IC50s, HOIP” value was 2.01 and the pIC50 is 5.55. In experiment [2], the “Hill Slope Values for calculated IC50s, ITCH” value is 5.12 and the pIC50 is 4.52.

With `NC(=O)c1cnccn1` [pyrazinamide], in experiment [3] (setting [7]), the remaining activity at 10 µM was 49.3%.
